Source: the supplement of paper PMC10307832

What was measured:
Test in all cases: relative viability (nuclei count vs DMSO), 5 days (fraction); higher = more cells survive
Metformin = compound: CN(C)C(=N)NC(=N)N [Metformin]
Outline: (§1)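 Lung cancer cell lines in 1536-well plates were exposed by pinning to five library-drug doses (not always all listed) √10 apart, following an overnight hold at 37 °C. MetaXpress counted Hoechst-stained nuclei from 4× images taken after 5 days without medium change. Viability is the median ratio of treated-well to vehicle-well nuclei across plates. Plates required control CV below 25% and at least one doubling.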

Apatinib = compound: N#CC1(c2ccc(NC(=O)c3cccnc3NCc3ccncc3)cc2)CCCC1 [Apatinib]
Outline: as §1

Metformin + Alpelisib = compound: CN(C)C(=N)NC(=N)N [Metformin] + Cc1nc(NC(=O)N2CCC[C@H]2C(N)=O)sc1-c1ccnc(C(C)(C)C(F)(F)F)c1 [Alpelisib] (partner 2 µM)
Outline: (§2)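 Relative viability equals treated-well nuclei counts divided by vehicle-well nuclei counts. Counts came from 4× images of lung cancer cell lines grown in 1536-well plates for 5 days after pin-tool dosing on the day after seeding. Dosing used one drug alone or a fixed anchor-drug dose plus five library-drug doses (not always all listed) in √10 steps, and values are medians of duplicate plates.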

Apatinib + Pemetrexed = compound: N#CC1(c2ccc(NC(=O)c3cccnc3NCc3ccncc3)cc2)CCCC1 [Apatinib] + Nc1nc2[nH]cc(CCc3ccc(C(=O)N[C@@H](CCC(=O)O)C(=O)O)cc3)c2c(=O)[nH]1 [Pemetrexed] (partner 0.2 µM)
Outline: as §2

## HCC-15
Metformin; 31.62 µM
  relative viability: 1.08
Metformin; 100 µM
  relative viability: 1
Metformin; 316.23 µM
  relative viability: 0.926
Metformin; 1000 µM
  relative viability: 1.05
Apatinib; 0.08 µM
  relative viability: 1.1
Apatinib; 0.253 µM
  relative viability: 0.978
Apatinib; 0.8 µM
  relative viability: 0.971
Apatinib; 2.53 µM
  relative viability: 0.909
Apatinib; 8 µM
  relative viability: 0.841
Metformin + Alpelisib; first compound 10 µM
  relative viability: 0.921
Metformin + Alpelisib; first compound 31.62 µM
  relative viability: 1.07
Metformin + Alpelisib; first compound 100 µM
  relative viability: 1.03
Metformin + Alpelisib; first compound 316.23 µM
  relative viability: 0.659
Metformin + Alpelisib; first compound 1000 µM
  relative viability: 0.919
Apatinib + Pemetrexed; first compound 0.08 µM
  relative viability: 0.245
Apatinib + Pemetrexed; first compound 0.253 µM
  relative viability: 0.225
Apatinib + Pemetrexed; first compound 0.8 µM
  relative viability: 0.217
Apatinib + Pemetrexed; first compound 2.53 µM
  relative viability: 0.192
Apatinib + Pemetrexed; first compound 8 µM
  relative viability: 0.167

## HCC-44
Metformin; 10 µM
  relative viability: 0.938
Metformin; 31.62 µM
  relative viability: 0.997
Metformin; 100 µM
  relative viability: 1.02
Metformin; 316.23 µM
  relative viability: 0.909
Metformin; 1000 µM
  relative viability: 0.956
Apatinib; 0.08 µM
  relative viability: 0.959
Apatinib; 0.253 µM
  relative viability: 0.941
Apatinib; 0.8 µM
  relative viability: 0.95
Apatinib; 2.53 µM
  relative viability: 0.913
Apatinib; 8 µM
  relative viability: 0.922
Metformin + Alpelisib; first compound 10 µM
  relative viability: 0.782
Metformin + Alpelisib; first compound 31.62 µM
  relative viability: 0.825
Metformin + Alpelisib; first compound 100 µM
  relative viability: 0.931
Metformin + Alpelisib; first compound 316.23 µM
  relative viability: 0.711
Metformin + Alpelisib; first compound 1000 µM
  relative viability: 0.813
Apatinib + Pemetrexed; first compound 0.08 µM
  relative viability: 0.677
Apatinib + Pemetrexed; first compound 0.253 µM
  relative viability: 0.626
Apatinib + Pemetrexed; first compound 0.8 µM
  relative viability: 0.616
Apatinib + Pemetrexed; first compound 2.53 µM
  relative viability: 0.63
Apatinib + Pemetrexed; first compound 8 µM
  relative viability: 0.521

## HCC-78
Metformin; 10 µM
  relative viability: 0.857
Metformin; 31.62 µM
  relative viability: 1.03
Metformin; 100 µM
  relative viability: 1.27
Metformin; 316.23 µM
  relative viability: 0.968
Metformin; 1000 µM
  relative viability: 1.14
Apatinib; 0.08 µM
  relative viability: 0.967
Apatinib; 0.253 µM
  relative viability: 0.847
Apatinib; 0.8 µM
  relative viability: 1.01
Apatinib; 2.53 µM
  relative viability: 0.803
Apatinib; 8 µM
  relative viability: 0.858
Metformin + Alpelisib; first compound 10 µM
  relative viability: 0.408
Metformin + Alpelisib; first compound 31.62 µM
  relative viability: 0.537
Metformin + Alpelisib; first compound 100 µM
  relative viability: 0.57
Metformin + Alpelisib; first compound 316.23 µM
  relative viability: 0.469
Metformin + Alpelisib; first compound 1000 µM
  relative viability: 0.598
Apatinib + Pemetrexed; first compound 0.08 µM
  relative viability: 0.871
Apatinib + Pemetrexed; first compound 0.253 µM
  relative viability: 0.934
Apatinib + Pemetrexed; first compound 0.8 µM
  relative viability: 0.854
Apatinib + Pemetrexed; first compound 2.53 µM
  relative viability: 0.588
Apatinib + Pemetrexed; first compound 8 µM
  relative viability: 0.909

## HCC-366
Metformin; 10 µM
  relative viability: 0.926
Metformin; 31.62 µM
  relative viability: 1.06
Metformin; 100 µM
  relative viability: 1.02
Metformin; 316.23 µM
  relative viability: 0.964
Metformin; 1000 µM
  relative viability: 1.03
Apatinib; 0.08 µM
  relative viability: 1.03
Apatinib; 0.253 µM
  relative viability: 1
Apatinib; 0.8 µM
  relative viability: 1.02
Apatinib; 2.53 µM
  relative viability: 0.97
Apatinib; 8 µM
  relative viability: 0.988
Metformin + Alpelisib; first compound 10 µM
  relative viability: 0.43
Metformin + Alpelisib; first compound 31.62 µM
  relative viability: 0.545
Metformin + Alpelisib; first compound 100 µM
  relative viability: 0.472
Metformin + Alpelisib; first compound 316.23 µM
  relative viability: 0.452
Metformin + Alpelisib; first compound 1000 µM
  relative viability: 0.535
Apatinib + Pemetrexed; first compound 0.08 µM
  relative viability: 0.192
Apatinib + Pemetrexed; first compound 0.253 µM
  relative viability: 0.159
Apatinib + Pemetrexed; first compound 0.8 µM
  relative viability: 0.129
Apatinib + Pemetrexed; first compound 2.53 µM
  relative viability: 0.121
Apatinib + Pemetrexed; first compound 8 µM
  relative viability: 0.0888

## HCC-827
Metformin; 31.62 µM
  relative viability: 0.988
Metformin; 100 µM
  relative viability: 0.993
Metformin; 316.23 µM
  relative viability: 0.967
Metformin; 1000 µM
  relative viability: 0.997
Apatinib; 0.08 µM
  relative viability: 1.02
Apatinib; 0.253 µM
  relative viability: 1.02
Apatinib; 0.8 µM
  relative viability: 0.96
Apatinib; 2.53 µM
  relative viability: 0.976
Apatinib; 8 µM
  relative viability: 1.02
Metformin + Alpelisib; first compound 31.62 µM
  relative viability: 0.822
Metformin + Alpelisib; first compound 100 µM
  relative viability: 0.896
Metformin + Alpelisib; first compound 316.23 µM
  relative viability: 0.837
Metformin + Alpelisib; first compound 1000 µM
  relative viability: 0.782
Apatinib + Pemetrexed; first compound 0.08 µM
  relative viability: 0.254
Apatinib + Pemetrexed; first compound 0.253 µM
  relative viability: 0.25
Apatinib + Pemetrexed; first compound 0.8 µM
  relative viability: 0.247
Apatinib + Pemetrexed; first compound 2.53 µM
  relative viability: 0.231
Apatinib + Pemetrexed; first compound 8 µM
  relative viability: 0.258

## HOP-62
Metformin; 10 µM
  relative viability: 0.856
Metformin; 31.62 µM
  relative viability: 1.02
Metformin; 100 µM
  relative viability: 1.02
Metformin; 316.23 µM
  relative viability: 0.917
Metformin; 1000 µM
  relative viability: 1.03
Apatinib; 0.08 µM
  relative viability: 0.964
Apatinib; 0.253 µM
  relative viability: 0.924
Apatinib; 0.8 µM
  relative viability: 0.985
Apatinib; 2.53 µM
  relative viability: 0.859
Apatinib; 8 µM
  relative viability: 0.922
Metformin + Alpelisib; first compound 10 µM
  relative viability: 0.828
Metformin + Alpelisib; first compound 31.62 µM
  relative viability: 0.77
Metformin + Alpelisib; first compound 100 µM
  relative viability: 0.777
Metformin + Alpelisib; first compound 316.23 µM
  relative viability: 0.928
Metformin + Alpelisib; first compound 1000 µM
  relative viability: 0.934
Apatinib + Pemetrexed; first compound 0.08 µM
  relative viability: 0.333
Apatinib + Pemetrexed; first compound 0.253 µM
  relative viability: 0.31
Apatinib + Pemetrexed; first compound 0.8 µM
  relative viability: 0.289
Apatinib + Pemetrexed; first compound 2.53 µM
  relative viability: 0.244
Apatinib + Pemetrexed; first compound 8 µM
  relative viability: 0.16

## LC-2-ad
Metformin; 31.62 µM
  relative viability: 1.01
Metformin; 100 µM
  relative viability: 0.943
Metformin; 316.23 µM
  relative viability: 0.8
Metformin; 1000 µM
  relative viability: 0.767
Apatinib; 0.08 µM
  relative viability: 0.931
Apatinib; 0.253 µM
  relative viability: 0.991
Apatinib; 0.8 µM
  relative viability: 0.911
Apatinib; 2.53 µM
  relative viability: 0.856
Apatinib; 8 µM
  relative viability: 0.819
Metformin + Alpelisib; first compound 31.62 µM
  relative viability: 0.812
Metformin + Alpelisib; first compound 100 µM
  relative viability: 0.671
Metformin + Alpelisib; first compound 316.23 µM
  relative viability: 0.69
Metformin + Alpelisib; first compound 1000 µM
  relative viability: 0.651
Apatinib + Pemetrexed; first compound 0.08 µM
  relative viability: 0.248
Apatinib + Pemetrexed; first compound 0.253 µM
  relative viability: 0.299
Apatinib + Pemetrexed; first compound 0.8 µM
  relative viability: 0.259
Apatinib + Pemetrexed; first compound 2.53 µM
  relative viability: 0.267
Apatinib + Pemetrexed; first compound 8 µM
  relative viability: 0.233

## LCLC-97TM1
Metformin; 10 µM
  relative viability: 0.725
Metformin; 31.62 µM
  relative viability: 0.978
Metformin; 100 µM
  relative viability: 0.988
Metformin; 316.23 µM
  relative viability: 0.843
Metformin; 1000 µM
  relative viability: 1.25
Apatinib; 0.08 µM
  relative viability: 0.792
Apatinib; 0.253 µM
  relative viability: 0.882
Apatinib; 0.8 µM
  relative viability: 1.02
Apatinib; 2.53 µM
  relative viability: 0.785
Apatinib; 8 µM
  relative viability: 0.662
Metformin + Alpelisib; first compound 10 µM
  relative viability: 0.285
Metformin + Alpelisib; first compound 31.62 µM
  relative viability: 0.284
Metformin + Alpelisib; first compound 100 µM
  relative viability: 0.339
Metformin + Alpelisib; first compound 316.23 µM
  relative viability: 0.252
Metformin + Alpelisib; first compound 1000 µM
  relative viability: 0.346
Apatinib + Pemetrexed; first compound 0.08 µM
  relative viability: 0.179
Apatinib + Pemetrexed; first compound 0.253 µM
  relative viability: 0.139
Apatinib + Pemetrexed; first compound 0.8 µM
  relative viability: 0.161
Apatinib + Pemetrexed; first compound 2.53 µM
  relative viability: 0.141
Apatinib + Pemetrexed; first compound 8 µM
  relative viability: 0.146
